Assay results as given in patent publication US20070203066A1, “Compositions and methods for inhibiting cellular proliferation” (priority 2005, published 2007).
No end group written: not given here.

Tested on: HUVECs
Type: cell-based
Conditions: HUVEC proliferation, bFGF at 10 ng/ml or VEGF at 5 ng/ml, 48 hours, BrdU incorporation; read-out: IC50 on HUVECs
Experimental: HUVECs were routinely cultured to near confluency in EGM media (Clontech, Mountain View, California). The cells were trypsinized and plated in a 96-well plate at 5,000 cells per well per 100 μl EBM supplemented with 2% FCS and antibiotics. The cells were allowed to adhere to the plate for at least 12 hours. Then, bFGF at 10 ng/ml or VEGF at 5 ng/ml, and various concentrations of peptide, were added to the wells. The cells were cultured for 48 hours at 37 ° C. in a 5% CO2 atmosphere. Cell proliferation was determined using a bromo-deoxyuridine (BrdU) incorporation method as described by the manufacturer. Inhibition of cell proliferation was assessed by BrdU incorporation.

Row | Substance | IC50
1 | 199 (Ac-RARRAQRVRIIF; also: dimer: C-terminal Phe bound to an amino group of a Lys linker, 2 chains per Lys) [compound 199] | < 10 µM
2 | 200 (Ac-RARRRQAVRIIF; also: dimer: C-terminal Phe bound to an amino group of a Lys linker, 2 chains per Lys) [compound 200] | < 10 µM
3 | 201 (Ac-RARRRQRVAIIF; also: dimer: C-terminal Phe bound to an amino group of a Lys linker, 2 chains per Lys) [compound 201] | < 10 µM
4 | 202 (Ac-RRAARQRVRIIF; also: dimer: C-terminal Phe bound to an amino group of a Lys linker, 2 chains per Lys) [compound 202] | < 10 µM
5 | 203 (Ac-RRARAQRVRIIF; also: dimer: C-terminal Phe bound to an amino group of a Lys linker, 2 chains per Lys) [compound 203] | < 10 µM
6 | 204 (Ac-RRARRQAVRIIF; also: dimer: C-terminal Phe bound to an amino group of a Lys linker, 2 chains per Lys) [compound 204] | < 10 µM
7 | 205 (Ac-RRARRQRVAIIF; also: dimer: Phe C-termini joined via Lys linker) [compound 205] | < 10 µM
8 | 206 (Ac-RRRAAQRVRIIF; also: dimer: Phe C-termini joined via Lys linker) [compound 206] | < 10 µM
9 | 207 (Ac-RRRARQAVRIIF; also: dimer: Phe C-termini joined via Lys linker) [compound 207] | < 10 µM
10 | 208 (Ac-RRRARQRVAIIF; also: dimer: Phe C-termini joined via Lys linker) [compound 208] | < 10 µM
11 | 209 (Ac-RRRRAQAVRIIF; also: dimer: Phe C-termini joined via Lys linker) [compound 209] | < 10 µM
12 | 210 (Ac-RRRRAQRVAIIF; also: dimer: Phe C-termini joined via Lys linker) [compound 210] | < 10 µM
13 | 211 (Ac-RRRRRQAVAIIF; also: dimer: Phe C-termini joined via Lys linker) [compound 211] | < 10 µM
14 | 212 (Ac-AARRRQRVAIIF; also: dimer: Phe C-termini joined via Lys linker) [compound 212] | > 30 µM
15 | 213 (Ac-ARARRQRVAIIF; also: dimer: Phe C-termini joined via Lys linker) [compound 213] | < 10 µM
16 | 215 (Ac-ARRRAQRVAIIF; also: dimer: Phe C-termini joined via Lys linker) [compound 215] | < 10 µM
17 | 216 (Ac-ARRRRQAVAIIF; also: dimer: Phe C-termini joined via Lys linker) [compound 216] | 10 to 30 µM
18 | 217 (Ac-AHHHHQHVAIIF; also: dimer: Phe C-termini joined via Lys linker) [compound 217] | > 30 µM
19 | 218 (Ac-RARRRQAVAIIF; also: dimer: Phe C-termini joined via Lys linker) [compound 218] | < 10 µM
20 | 219 (Ac-RRARRQAVAIIF; also: dimer: Phe C-termini joined via Lys linker) [compound 219] | < 10 µM
21 | 220 (Ac-RRRARQAVAIIF; also: dimer: Phe C-termini joined via Lys linker) [compound 220] | < 10 µM
22 | 221 (Ac-RRRRAQAVAIIF; also: dimer: Phe C-termini joined via Lys linker) [compound 221] | < 10 µM
